Test results taken from patent publication US10058550B2, “Methods of treating heart failure” (priority 2015, dated 2018).

Target: human APJ receptor (Homo sapiens (Human), UniProt P35414)
Assay: biochemical
Type: biochemical
Conditions: read-out: Activity hAPJ SPA EC50 IP
In short: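 Membranes from CHO cells stably expressing cloned human APJ were incubated with WGA SPA beads in 20 mM HEPES pH 7.5, 5 mM MgCl2, 0.1% BSA, 200 mM NaCl and 3 μM GDP. Reaction started with 0.2 nM [35S]GTPγS ± ligands, 90 min at RT. EC50 obtained by non-linear regression as mean of independent experiments.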

Sequence of human APJ receptor (P35414 whole entry): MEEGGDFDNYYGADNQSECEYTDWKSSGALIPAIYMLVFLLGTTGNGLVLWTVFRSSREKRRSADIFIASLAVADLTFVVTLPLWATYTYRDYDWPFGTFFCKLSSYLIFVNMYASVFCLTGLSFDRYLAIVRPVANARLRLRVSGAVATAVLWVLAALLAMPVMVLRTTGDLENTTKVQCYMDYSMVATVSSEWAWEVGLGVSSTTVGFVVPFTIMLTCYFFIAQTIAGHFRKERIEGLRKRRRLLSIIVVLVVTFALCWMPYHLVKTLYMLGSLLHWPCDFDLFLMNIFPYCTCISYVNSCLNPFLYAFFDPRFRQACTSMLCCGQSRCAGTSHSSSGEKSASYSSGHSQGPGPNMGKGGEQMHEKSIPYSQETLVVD

Structure (SMILES) | EC50 [nM]
CCO[C@H](c1ncc(F)cn1)[C@H](C)S(=O)(=O)Nc1nnc(-c2cccc(OC)n2)n1-c1c(OC)cccc1OC [Example 48.0, (1R,2S)-N-(4-(2,6-dimethoxyphenyl)-5-(6-methoxy-2-pyridinyl)-4H-1,2,4-triazol-3-yl)-1-ethoxy-1-(5-fluoro-2-pyrimidinyl)-2-propanesulfonamide] | 0.18
COc1cnc([C@@H](OC)[C@H](C)S(=O)(=O)Nc2nnc(-c3cccc(OC)n3)n2-c2c(OC)cccc2OC)nc1 [Example 49.0, (1R,2S)-N-(4-(2,6-dimethoxyphenyl)-5-(6-methoxy-2-pyridinyl)-4H-1,2,4-triazol-3-yl)-1-methoxy-1-(5-methoxy-2-pyrimidinyl)-2-propanesulfonamide] | 0.17
CCO[C@H](c1ncc(F)cn1)[C@H](C)S(=O)(=O)Nc1nnc(-c2cccc(OC)n2)n1-c1ccccc1 [Example 50.0, (1R,2S)-1-ethoxy-1-(5-fluoro-2-pyrimidinyl)-N-(5-(6-methoxy-2-pyridinyl)-4-phenyl-4H-1,2,4-triazol-3-yl)-2-propanesulfonamide] | 9.3
CCO[C@H](c1ncc(F)cn1)[C@H](C)S(=O)(=O)Nc1nnc(-c2cccnc2)n1-c1c(OC)cccc1OC [Example 51.0, (1R,2S)-N-(4-(2,6-dimethoxyphenyl)-5-(3-pyridinyl)-4H-1,2,4-triazol-3-yl)-1-ethoxy-1-(5-fluoro-2-pyrimidinyl)-2-propanesulfonamide] | 0.71
COc1cccc(-c2nnc(NS(=O)(=O)[C@@H](C)[C@H](OC)c3ncc(C)cn3)n2-c2ccc3ccccc3c2)n1 [Example 53.0, (1R,2S)-1-methoxy-N-(5-(6-methoxy-2-pyridinyl)-4-(2-naphthalenyl)-4H-1,2,4-triazol-3-yl)-1-(5-methyl-2-pyrimidinyl)-2-propanesulfonamide] | 53
COC(=O)c1cccc(-n2c(NS(=O)(=O)[C@@H](C)[C@H](OC)c3ncc(C)cn3)nnc2-c2cccc(OC)n2)c1 [Example 54.0, methyl 3-(3-((((1S,2R)-2-methoxy-1-methyl-2-(5-methyl-2-pyrimidinyl)ethyl)sulfonyl)amino)-5-(6-methoxy-2-pyridinyl)-4H-1,2,4-triazol-4-yl)benzoate] | 12
COc1cccc(-c2nnc(NS(=O)(=O)[C@@H](C)[C@H](OC)c3ncc(C)cn3)n2-c2cccc(C#N)c2)n1 [Example 56.0, (1R,2S)-N-(4-(3-cyanophenyl)-5-(6-methoxy-2-pyridinyl)-4H-1,2,4-triazol-3-yl)-1-methoxy-1-(5-methyl-2-pyrimidinyl)-2-propanesulfonamide] | 31
COc1cnc([C@@H](OC)[C@H](C)S(=O)(=O)Nc2nnc(-c3cncc(C)c3)n2-c2c(OC)cccc2OC)nc1 [Example 57.0, (1R,2S)-N-(4-(2,6-dimethoxyphenyl)-5-(5-methyl-3-pyridinyl)-4H-1,2,4-triazol-3-yl)-1-methoxy-1-(5-methoxy-2-pyrimidinyl)-2-propanesulfonamide] | 0.55
COc1cnc([C@@H](OC)[C@H](C)S(=O)(=O)Nc2nnc(-c3cccnc3)n2-c2c(OC)cccc2OC)nc1 [Example 58.0, (1R,2S)-N-(4-(2,6-dimethoxyphenyl)-5-(3-pyridinyl)-4H-1,2,4-triazol-3-yl)-1-methoxy-1-(5-methoxy-2-pyrimidinyl)-2-propanesulfonamide] | 0.5
COc1cnc([C@@H](OC)[C@H](C)S(=O)(=O)Nc2nnc(-c3cncc(C)c3)n2-c2ccccc2)nc1 [Example 59.0, (1R,2S)-1-methoxy-1-(5-methoxy-2-pyrimidinyl)-N-(5-(5-methyl-3-pyridinyl)-4-phenyl-4H-1,2,4-triazol-3-yl)-2-propanesulfonamide] | 26
COc1cccc(-c2nnc(NS(=O)(=O)[C@@H](C)[C@H](OC)c3ncc(C)cn3)n2-c2cccc(Br)c2)n1 [Example 60.0, (1R,2S)-N-(4-(3-bromophenyl)-5-(6-methoxy-2-pyridinyl)-4H-1,2,4-triazol-3-yl)-1-methoxy-1-(5-methyl-2-pyrimidinyl)-2-propanesulfonamide] | 12
COc1cccc(-c2nnc(NS(=O)(=O)[C@@H](C)[C@H](OC)c3ncc(C)cn3)n2-c2cccc(C)c2)n1 [Example 62.0, (1R,2S)-1-methoxy-N-(5-(6-methoxy-2-pyridinyl)-4-(3-methylphenyl)-4H-1,2,4-triazol-3-yl)-1-(5-methyl-2-pyrimidinyl)-2-propanesulfonamide] | 6
COc1cccc(-c2nnc(NS(=O)(=O)[C@@H](C)[C@H](OC)c3ncc(C)cn3)n2-c2ccc(F)c(C(F)(F)F)c2)n1 [Example 63.0, (1R,2S)-N-(4-(4-fluoro-3-(trifluoromethyl)phenyl)-5-(6-methoxy-2-pyridinyl)-4H-1,2,4-triazol-3-yl)-1-methoxy-1-(5-methyl-2-pyrimidinyl)-2-propanesulfonamide] | 350
COc1cccc(-n2c(NS(=O)(=O)[C@@H](C)[C@H](OC)c3ncc(C)cn3)nnc2-c2cccc(OC)n2)c1 [Example 64.0, (1R,2S)-1-methoxy-N-(4-(3-methoxyphenyl)-5-(6-methoxy-2-pyridinyl)-4H-1,2,4-triazol-3-yl)-1-(5-methyl-2-pyrimidinyl)-2-propanesulfonamide] | 10
COc1cccc(-c2nnc(NS(=O)(=O)[C@@H](C)[C@H](OC)c3ncc(C)cn3)n2-c2ccc(F)cc2)n1 [Example 65.0, (1R,2S)-N-(4-(4-fluorophenyl)-5-(6-methoxy-2-pyridinyl)-4H-1,2,4-triazol-3-yl)-1-methoxy-1-(5-methyl-2-pyrimidinyl)-2-propanesulfonamide] | 180
COc1cccc(-c2nnc(NS(=O)(=O)[C@@H](C)[C@H](OC)c3ncc(C)cn3)n2-c2cccc(Cl)c2)n1 [Example 66.0, (1R,2S)-N-(4-(3-chlorophenyl)-5-(6-methoxy-2-pyridinyl)-4H-1,2,4-triazol-3-yl)-1-methoxy-1-(5-methyl-2-pyrimidinyl)-2-propanesulfonamide] | 24
COc1cccc(-c2nnc(NS(=O)(=O)[C@@H](C)[C@H](OC)c3ncc(C)cn3)n2-c2cc(Cl)cc(Cl)c2)n1 [Example 68.0, (1R,2S)-N-(4-(3,5-dichlorophenyl)-5-(6-methoxy-2-pyridinyl)-4H-1,2,4-triazol-3-yl)-1-methoxy-1-(5-methyl-2-pyrimidinyl)-2-propanesulfonamide] | 60
COc1cccc(-c2nnc(NS(=O)(=O)[C@@H](C)[C@H](OC)c3ncc(C)cn3)n2-c2ccc(F)c(F)c2)n1 [Example 71.0, (1R,2S)-N-(4-(3,4-difluorophenyl)-5-(6-methoxy-2-pyridinyl)-4H-1,2,4-triazol-3-yl)-1-methoxy-1-(5-methyl-2-pyrimidinyl)-2-propanesulfonamide] | 210
COc1cccc(-c2nnc(NS(=O)(=O)[C@@H](C)[C@H](OC)c3ncc(C)cn3)n2-c2cccc(C(C)=O)c2)n1 [Example 72.0, (1R,2S)-N-(4-(3-acetylphenyl)-5-(6-methoxy-2-pyridinyl)-4H-1,2,4-triazol-3-yl)-1-methoxy-1-(5-methyl-2-pyrimidinyl)-2-propanesulfonamide] | 9.1
COc1cccc(-c2nnc(NS(=O)(=O)[C@@H](C)[C@H](OC)c3ncc(C)cn3)n2-c2c(Cl)cccc2Cl)n1 [Example 73.0, (1R,2S)-N-(4-(2,6-dichlorophenyl)-5-(6-methoxy-2-pyridinyl)-4H-1,2,4-triazol-3-yl)-1-methoxy-1-(5-methyl-2-pyrimidinyl)-2-propanesulfonamide] | 0.76
